{"source": "patent US10537610B1", "about": "“Peptide for inhibition of cancer” (priority 2018, dated 2020)", "type_in_all_cases": "cell-based, human", "key": {"[1]": {"test_system": "HMEC-1 endothelial monolayer", "experimental": "The cells were treated with the peptide P4D for 0, 1, 5, or 24 hours at a concentration of 500 μM. The cells treated with the Scrambled peptide P4D (Scr; 500 μM; 0, 1, 5, or 24 hours incubation time) were used as a negative control. In order to provide the positive control of the junctions tightening for impedance-based measurements of endothelial permeability, the cells were incubated with the potent activator of TJ assembly, forskolin (FSK; BioShop, Burlington, ON, Canada), for 24 hours at a concentration of 10 μM. Experiments based on impedance measurements were performed at Bionanopark, Ltd. (Lodz, Poland) with an ACEA xCELLigence® Real-Time Cell Analysis (RTCA) DP system (Roche, Mannheim, Germany) consisting of an RTCA DP instrument, a personal computer-based RTCA control unit and single-use electronic 16-well plates “E-Plate VIEW 16 PET”. All experiments were performed following the manufacturer's instructions. In brief, the gold-film electrodes deposited on the bottom of the “E-plate VIEW 16 PET” electrode arrays were equilibrated with MCDB 131 culture medium overnight. Subsequently, the medium was aspirated and replaced by a 100 μL of fresh medium for impedance background measurements. HMEC-1 cells were seeded at a density of 40,000 cells per well in MCDB 131 medium with supplements. After allowing cell sedimentation for 30 min at room temperature, plates were locked into the RTCA DP instrument for continuous recording of impedance changes at three different AC frequencies (10 kHz, 25 kHz, 50 kHz), which are expressed as Cell Index (CI) values. CI is a dimensionless parameter based on relative impedance changes referenced to the values of the cell-free electrode at each frequency: [formula] where N is the number of the frequency points at which the impedance was measured, whereas […] Rb(fi) are the frequency-dependent electrode resistances with cells present and without cells, respectively. Thus, CI is a quantitative measure of cell status in a well, including the cell number, cell viability, adhesion degree, and morphology. Although CI is measured at three frequencies, only the most sensitive readings are returned by the software as a function of time and reported as the final results. In general, CI values rise with increasing coverage of the electrode with cells, which is caused at an early stage by cell sedimentation and, later on, by cell proliferation. During the phase of logarithmic cell growth HMEC-1 cells were pretreated with cytokines (TNF/IFN) and after 24 hours subsequently treated with the tested compounds (Scr, P4D, or FSK). For some experiments, the cells were treated with the compounds 2 hours after the cytokines treatment. Alternatively, the compounds treatment was applied about 3 hours after HMEC-1 seeding and about 67 hours later was followed by the cytokines treatment. This experimental approach included additionally the sample designated as 'P4D & TNF/IFN' i.e. after the pretreatment with P4D the cells were subjected to the concurrent treatment with P4D and cytokines."}, "[2]": {"test_system": "breast cancer cells (MCF-7, MDA-MB-231) on HMEC-1 cells", "experiment": "Adhesion of breast cancer cells to endothelial monolayer under static conditions", "conditions": "P4D 500 μM", "experimental": "The peptides were synthesized and purified by LifeTein, LLC (Somerset, N.J., USA) with the purity of not less than 95% using PeptideSyn™ technology that incorporates solid phase fluorenylmethyloxycarbonyl (Fmoc) chemistry. The cells were treated with the peptide P4D for 0, 1, 5, or 24 hours at a concentration of 500 μM. The cells treated with the Scrambled peptide P4D (Scr; 500 μM; 0, 1, 5, or 24 hours incubation time) were used as a negative control. In order to provide the positive control of the junctions tightening for impedance-based measurements of endothelial permeability, the cells were incubated with the potent activator of TJ assembly, forskolin (FSK; BioShop, Burlington, ON, Canada), for 24 hours at a concentration of 10 μM.\nAdhesion of human breast cancer (MCF-7, MDA-MB-231) or non-tumorigenic (MCF-10A) human breast cells to HMEC-1 cells was performed in 24-well plates. HMEC-1 cells were seeded to the bottom of the fibronectin-coated wells 2 days before the assay to form the monolayer and subjected to a suitable treatment. Breast cancer or non-tumorigenic cells were starved overnight and on the day of the assay were labeled with CellTracker Green CMFDA Dye for 30 minutes. […] The adherent cells were lysed by 2% SDS and the fluorescence was measured using the Wallac 1420 VICTOR2 Multilabel Counter (PerkinElmer) at 492 nm of excitation and 517 nm of emission wavelengths."}, "[3]": {"test_system": "HMEC-1 endothelial monolayer", "experiment": "Macromolecular permeability of endothelial monolayer (FITC-dextran tracer assay)", "experimental": "Macromolecular permeability of endothelial monolayer was analyzed by macromolecular tracer assay. HMEC-1 cells were grown in Transwell inserts with polyethylene terephthalate (PET) filters and 0.4-μm pores (Falcon, cat. #353095) in 24-well plates (Falcon, cat. #351147) at 1.5×10^5 cells/insert and immediately treated with P4D peptide (P4D) or with Scrambled P4D peptide (Scr) at a concentration of 500 μM (the samples indicated as 0 hours of incubation). Non-treated cells served as a control sample (Ctrl). Moreover, HMEC-1 cells were treated with P4D peptide at the following periods of time after seeding: 1 hour, 5 hours and 24 hours. One hour after the last treatment with P4D (24 hours) FITC-dextran with a molecular weight of 40 kDa was added into the inserts and the culture medium from the wells was replaced with PBS. After 1 hour incubation in darkness in a humidified incubator with the temperature of 37° C. and 5% CO2 atmosphere, the PBS from the wells (outside the inserts) was transferred into the wells of a black 96-well plate and the fluorescence was measured using the Wallac 1420 VICTOR2 Multilabel Counter (PerkinElmer, Waltham, Mass., USA) at 492 nm of excitation and 517 nm of emission wavelengths."}}, "note": "Read-outs that look alike come from different tables or passages of the source. Non-standard residues stand in square brackets, D forms with d. Residues, ends and D or L forms follow the SMILES beside them."}
{"compound": "CC(C)[C@H](NC(=O)[C@H](CO)NC(=O)[C@H](N)CCCCN)C(=O)N[C@H](C(=O)N[C@H](CCCNC(=N)N)C(=O)N[C@@H](CCC(=O)O)C(=O)N[C@@H](CC(=O)O)C(=O)N[C@H](C(=O)NCC(=O)N[C@H](C(=O)N[C@@H](Cc1ccc(O)cc1)C(=O)N[C@H](C(=O)N[C@@H](CS)C(N)=O)[C@@H](C)O)[C@@H](C)O)[C@@H](C)O)[C@@H](C)O", "note": "[Peptide P4D, NH2-(dK)-SVT-(dR)-EDTGTYTC-CONH2] (H-[dK]SVT[dR]EDTGTYTC-NH2)", "values": [{"measurement": "barrier-protecting effect (Cell Index)", "setting": "[1]; P4D about 2.5 hours after plating plus second supplementary dose simultaneously with cytokines ('P4D & TNF/IFN')", "result": "even more evident than that one of FSK"}, {"measurement": "barrier-protecting effect (Cell Index)", "setting": "[1]; P4D about 2.5 hours after plating, cytokines about 60 hours later, no supplementary dose", "result": "did not reveal any barrier-protecting properties"}, {"measurement": "barrier-strengthening effect relative to forskolin", "setting": "[1]; applied ~24 hours after seeding, FSK 10 μM", "result": "apparently weaker than that one of forskolin"}, {"measurement": "endothelial barrier function (Cell Index)", "setting": "[1]; applied ~24 hours after seeding, compared to controls", "result": "slightly strengthened endothelial barrier function"}, {"measurement": "barrier-protecting effect (Cell Index)", "setting": "[1]; compound applied 24 hours after treatment with inflammatory cytokines (TNF/IFN)", "result": "did not reproduce the barrier-protecting effect of FSK"}, {"measurement": "adhesion of MECs to inflamed endothelial monolayer", "setting": "[2]; HMEC-1 preincubated with TNF-α 10 ng/ml and IFN-γ 20 ng/ml for 24 hours", "result": "restrained the adhesion of MECs to the inflamed endothelial monolayer"}, {"measurement": "extent of adhesion inhibition, MDA-MB-231 cells compared with other MECs", "setting": "[2]; cytokine-inflamed HMEC-1", "result": "most pronounced"}, {"measurement": "effect on preexisting tight junctions (FITC-dextran flux)", "setting": "[3]; P4D 500 μM applied 1, 5 or 24 hours after seeding", "result": "did not disrupt the preexisting ones"}, {"measurement": "transendothelial flux of 40-kDa FITC-dextran", "setting": "[3]; P4D 500 μM applied immediately after the cells were seeded (0 hours)", "result": "elevated"}]}
